According to the NIST ThermoML archive (doi:10.1007/s10765-009-0602-6):
Numbers after ± are expanded uncertainties.

Experiment: molar heat capacity at constant volume; xn = mol fraction of the nth substance listed
Conditions: x1 = 0.2607

For `N` [ammonia] + O, the “molar heat capacity at constant volume” value (597.59 K, Fluid (supercritical or subcritical phases), Mass density=342.18 kg/m3, isochoric heat capacity) was 106.69 ± 4.3 J/K/mol, the “molar heat capacity at constant volume” value (597.6 K, Fluid (supercritical or subcritical phases), Mass density=160.07 kg/m3, isochoric heat capacity) was 66.86 ± 2.7 J/K/mol and the “molar heat capacity at constant volume” value (597.67 K, Fluid (supercritical or subcritical phases), Mass density=342.18 kg/m3, isochoric heat capacity) was 101.08 ± 4 J/K/mol. For the same molecule, the “molar heat capacity at constant volume” value (597.68 K, Fluid (supercritical or subcritical phases), Mass density=376.89 kg/m3, isochoric heat capacity) was 88.28 ± 3.5 J/K/mol, the “molar heat capacity at constant volume” value (597.69 K, Fluid (supercritical or subcritical phases), Mass density=160.07 kg/m3, isochoric heat capacity) was 65.49 ± 2.6 J/K/mol and the “molar heat capacity at constant volume” value (597.76 K, Fluid (supercritical or subcritical phases), Mass density=342.18 kg/m3, isochoric heat capacity) was 93.62 ± 3.7 J/K/mol. The “molar heat capacity at constant volume” value (597.85 K, Fluid (supercritical or subcritical phases), Mass density=342.18 kg/m3, isochoric heat capacity) was 99.13 ± 4 J/K/mol, the “molar heat capacity at constant volume” value (597.93 K, Fluid (supercritical or subcritical phases), Mass density=342.18 kg/m3, isochoric heat capacity) was 94.33 ± 3.8 J/K/mol and the “molar heat capacity at constant volume” value (597.93 K, Fluid (supercritical or subcritical phases), Mass density=376.89 kg/m3, isochoric heat capacity) was 82.42 ± 3.3 J/K/mol. The “molar heat capacity at constant volume” value (598.02 K, Fluid (supercritical or subcritical phases), Mass density=342.18 kg/m3, isochoric heat capacity) was 93.02 ± 3.7 J/K/mol, the “molar heat capacity at constant volume” value (598.28 K, Fluid (supercritical or subcritical phases), Mass density=376.89 kg/m3, isochoric heat capacity) was 83.59 ± 3.3 J/K/mol and the “molar heat capacity at constant volume” value (598.33 K, Fluid (supercritical or subcritical phases), Mass density=329 kg/m3, isochoric heat capacity) was 117.38 ± 4.8 J/K/mol. The “molar heat capacity at constant volume” value (598.33 K, Liquid, Isochoric heat capacity) was 117.38 ± 4.7 J/K/mol, the “molar heat capacity at constant volume” value (598.45 K, Fluid (supercritical or subcritical phases), Mass density=329 kg/m3, isochoric heat capacity) was 113.21 ± 4.6 J/K/mol and the “molar heat capacity at constant volume” value (598.54 K, Fluid (supercritical or subcritical phases), Mass density=329 kg/m3, isochoric heat capacity) was 109.57 ± 4.4 J/K/mol. For the same molecule, the “molar heat capacity at constant volume” value (598.71 K, Fluid (supercritical or subcritical phases), Mass density=329 kg/m3, isochoric heat capacity) was 102.77 ± 4.1 J/K/mol, the “molar heat capacity at constant volume” value (598.96 K, Fluid (supercritical or subcritical phases), Mass density=320.33 kg/m3, isochoric heat capacity) was 120.79 ± 4.8 J/K/mol and the “molar heat capacity at constant volume” value (598.96 K, Liquid, Isochoric heat capacity) was 120.79 ± 4.8 J/K/mol. For the same molecule, the “molar heat capacity at constant volume” value (598.97 K, Fluid (supercritical or subcritical phases), Mass density=376.89 kg/m3, isochoric heat capacity) was 81.57 ± 3.3 J/K/mol, the “molar heat capacity at constant volume” value (598.98 K, Fluid (supercritical or subcritical phases), Mass density=160.07 kg/m3, isochoric heat capacity) was 58.27 ± 2.3 J/K/mol and the “molar heat capacity at constant volume” value (599.05 K, Fluid (supercritical or subcritical phases), Mass density=320.33 kg/m3, isochoric heat capacity) was 119.07 ± 4.8 J/K/mol. The “molar heat capacity at constant volume” value (599.05 K, Fluid (supercritical or subcritical phases), Mass density=329 kg/m3, isochoric heat capacity) was 107.4 ± 4.3 J/K/mol, the “molar heat capacity at constant volume” value (599.12 K, Fluid (supercritical or subcritical phases), Mass density=160.07 kg/m3, isochoric heat capacity) was 56.88 ± 2.3 J/K/mol and the “molar heat capacity at constant volume” value (599.14 K, Fluid (supercritical or subcritical phases), Mass density=320.33 kg/m3, isochoric heat capacity) was 116.6 ± 4.7 J/K/mol. For the same molecule, the “molar heat capacity at constant volume” value (599.22 K, Fluid (supercritical or subcritical phases), Mass density=320.33 kg/m3, isochoric heat capacity) was 116.48 ± 4.7 J/K/mol, the “molar heat capacity at constant volume” value (599.22 K, Fluid (supercritical or subcritical phases), Mass density=329 kg/m3, isochoric heat capacity) was 100.28 ± 4 J/K/mol and the “molar heat capacity at constant volume” value (599.24 K, Fluid (supercritical or subcritical phases), Mass density=160.07 kg/m3, isochoric heat capacity) was 59.53 ± 2.4 J/K/mol. The “molar heat capacity at constant volume” value (599.28 K, Fluid (supercritical or subcritical phases), Mass density=160.07 kg/m3, isochoric heat capacity) was 57.43 ± 2.3 J/K/mol, the “molar heat capacity at constant volume” value (599.31 K, Fluid (supercritical or subcritical phases), Mass density=320.33 kg/m3, isochoric heat capacity) was 114.22 ± 4.6 J/K/mol and the “molar heat capacity at constant volume” value (599.31 K, Fluid (supercritical or subcritical phases), Mass density=329 kg/m3, isochoric heat capacity) was 97.19 ± 4 J/K/mol. For the same molecule, the “molar heat capacity at constant volume” value (599.31 K, Fluid (supercritical or subcritical phases), Mass density=456.58 kg/m3, isochoric heat capacity) was 67.32 ± 2.7 J/K/mol, the “molar heat capacity at constant volume” value (599.39 K, Fluid (supercritical or subcritical phases), Mass density=320.33 kg/m3, isochoric heat capacity) was 116.94 ± 4.7 J/K/mol and the “molar heat capacity at constant volume” value (599.42 K, Fluid (supercritical or subcritical phases), Mass density=312.91 kg/m3, isochoric heat capacity) was 124.13 ± 5.3 J/K/mol. For the same molecule, the “molar heat capacity at constant volume” value (599.42 K, Liquid, Isochoric heat capacity) was 124.13 ± 5 J/K/mol, the “molar heat capacity at constant volume” value (599.48 K, Fluid (supercritical or subcritical phases), Mass density=312.91 kg/m3, isochoric heat capacity) was 116.5 ± 4.8 J/K/mol and the “molar heat capacity at constant volume” value (599.48 K, Fluid (supercritical or subcritical phases), Mass density=456.58 kg/m3, isochoric heat capacity) was 66.88 ± 2.7 J/K/mol. The “molar heat capacity at constant volume” value (599.57 K, Fluid (supercritical or subcritical phases), Mass density=311.19 kg/m3, isochoric heat capacity) was 125.38 ± 5.1 J/K/mol, the “molar heat capacity at constant volume” value (599.57 K, Fluid (supercritical or subcritical phases), Mass density=312.91 kg/m3, isochoric heat capacity) was 107.92 ± 4.4 J/K/mol and the “molar heat capacity at constant volume” value (599.57 K, Liquid, Isochoric heat capacity) was 125.38 ± 5 J/K/mol. The “molar heat capacity at constant volume” value (599.63 K, Fluid (supercritical or subcritical phases), Mass density=311.19 kg/m3, isochoric heat capacity) was 116.92 ± 4.7 J/K/mol, the “molar heat capacity at constant volume” value (599.65 K, Fluid (supercritical or subcritical phases), Mass density=312.91 kg/m3, isochoric heat capacity) was 98.79 ± 4.1 J/K/mol and the “molar heat capacity at constant volume” value (599.65 K, Fluid (supercritical or subcritical phases), Mass density=456.58 kg/m3, isochoric heat capacity) was 66.45 ± 2.7 J/K/mol. For the same molecule, the “molar heat capacity at constant volume” value (599.67 K, Fluid (supercritical or subcritical phases), Mass density=309.95 kg/m3, isochoric heat capacity) was 126.26 ± 5.3 J/K/mol, the “molar heat capacity at constant volume” value (599.67 K, Liquid, Isochoric heat capacity) was 126.26 ± 5 J/K/mol and the “molar heat capacity at constant volume” value (599.74 K, Fluid (supercritical or subcritical phases), Mass density=309.95 kg/m3, isochoric heat capacity) was 122.91 ± 5.2 J/K/mol. The “molar heat capacity at constant volume” value (599.74 K, Fluid (supercritical or subcritical phases), Mass density=311.19 kg/m3, isochoric heat capacity) was 119.75 ± 5 J/K/mol, the “molar heat capacity at constant volume” value (599.74 K, Fluid (supercritical or subcritical phases), Mass density=312.91 kg/m3, isochoric heat capacity) was 95.52 ± 4 J/K/mol and the “molar heat capacity at constant volume” value (599.78 K, Fluid (supercritical or subcritical phases), Mass density=308.35 kg/m3, isochoric heat capacity) was 124.13 ± 5.2 J/K/mol. The “molar heat capacity at constant volume” value (599.78 K, Fluid (supercritical or subcritical phases), Mass density=309.95 kg/m3, isochoric heat capacity) was 120.4 ± 4.8 J/K/mol, the “molar heat capacity at constant volume” value (599.78 K, Liquid, Isochoric heat capacity) was 124.13 ± 5 J/K/mol and the “molar heat capacity at constant volume” value (599.82 K, Fluid (supercritical or subcritical phases), Mass density=309.95 kg/m3, isochoric heat capacity) was 110.51 ± 4.5 J/K/mol. The “molar heat capacity at constant volume” value (599.82 K, Fluid (supercritical or subcritical phases), Mass density=311.19 kg/m3, isochoric heat capacity) was 114.13 ± 4.7 J/K/mol, the “molar heat capacity at constant volume” value (599.82 K, Fluid (supercritical or subcritical phases), Mass density=456.58 kg/m3, isochoric heat capacity) was 66.86 ± 2.7 J/K/mol and the “molar heat capacity at constant volume” value (599.89 K, Fluid (supercritical or subcritical phases), Mass density=307.35 kg/m3, isochoric heat capacity) was 121.11 ± 5.1 J/K/mol. The “molar heat capacity at constant volume” value (599.89 K, Liquid, Isochoric heat capacity) was 121.11 ± 4.8 J/K/mol, the “molar heat capacity at constant volume” value (599.91 K, Fluid (supercritical or subcritical phases), Mass density=308.35 kg/m3, isochoric heat capacity) was 117.6 ± 4.9 J/K/mol and the “molar heat capacity at constant volume” value (599.91 K, Fluid (supercritical or subcritical phases), Mass density=309.95 kg/m3, isochoric heat capacity) was 104.19 ± 4.2 J/K/mol. The “molar heat capacity at constant volume” value (599.99 K, Fluid (supercritical or subcritical phases), Mass density=307.35 kg/m3, isochoric heat capacity) was 117.17 ± 5 J/K/mol, the “molar heat capacity at constant volume” value (599.99 K, Fluid (supercritical or subcritical phases), Mass density=308.35 kg/m3, isochoric heat capacity) was 105.88 ± 4.3 J/K/mol and the “molar heat capacity at constant volume” value (599.99 K, Fluid (supercritical or subcritical phases), Mass density=309.95 kg/m3, isochoric heat capacity) was 102.57 ± 4.2 J/K/mol. The “molar heat capacity at constant volume” value (599.99 K, Fluid (supercritical or subcritical phases), Mass density=312.91 kg/m3, isochoric heat capacity) was 91.51 ± 3.7 J/K/mol, the “molar heat capacity at constant volume” value (600.02 K, Fluid (supercritical or subcritical phases), Mass density=305.44 kg/m3, isochoric heat capacity) was 119.52 ± 4.9 J/K/mol and the “molar heat capacity at constant volume” value (600.02 K, Liquid, Isochoric heat capacity) was 119.52 ± 4.8 J/K/mol. For the same molecule, the “molar heat capacity at constant volume” value (600.08 K, Fluid (supercritical or subcritical phases), Mass density=305.44 kg/m3, isochoric heat capacity) was 116.14 ± 4.8 J/K/mol, the “molar heat capacity at constant volume” value (600.08 K, Fluid (supercritical or subcritical phases), Mass density=307.35 kg/m3, isochoric heat capacity) was 103.34 ± 4.5 J/K/mol and the “molar heat capacity at constant volume” value (600.08 K, Fluid (supercritical or subcritical phases), Mass density=308.35 kg/m3, isochoric heat capacity) was 100.97 ± 4.1 J/K/mol. For the same molecule, the “molar heat capacity at constant volume” value (600.16 K, Fluid (supercritical or subcritical phases), Mass density=307.35 kg/m3, isochoric heat capacity) was 101.06 ± 4.3 J/K/mol, the “molar heat capacity at constant volume” value (600.17 K, Fluid (supercritical or subcritical phases), Mass density=303.47 kg/m3, isochoric heat capacity) was 117.74 ± 4.8 J/K/mol and the “molar heat capacity at constant volume” value (600.17 K, Fluid (supercritical or subcritical phases), Mass density=305.44 kg/m3, isochoric heat capacity) was 107.85 ± 4.6 J/K/mol. The “molar heat capacity at constant volume” value (600.17 K, Fluid (supercritical or subcritical phases), Mass density=308.35 kg/m3, isochoric heat capacity) was 93.64 ± 3.8 J/K/mol, the “molar heat capacity at constant volume” value (600.17 K, Liquid, Isochoric heat capacity) was 118.63 ± 4.7 J/K/mol and the “molar heat capacity at constant volume” value (600.25 K, Fluid (supercritical or subcritical phases), Mass density=303.47 kg/m3, isochoric heat capacity) was 110.49 ± 4.5 J/K/mol. The “molar heat capacity at constant volume” value (600.25 K, Fluid (supercritical or subcritical phases), Mass density=305.44 kg/m3, isochoric heat capacity) was 102.54 ± 4.1 J/K/mol, the “molar heat capacity at constant volume” value (600.29 K, Fluid (supercritical or subcritical phases), Mass density=301.94 kg/m3, isochoric heat capacity) was 117.56 ± 4.8 J/K/mol and the “molar heat capacity at constant volume” value (600.29 K, Liquid, Isochoric heat capacity) was 117.56 ± 4.7 J/K/mol. The “molar heat capacity at constant volume” value (600.33 K, Fluid (supercritical or subcritical phases), Mass density=301.94 kg/m3, isochoric heat capacity) was 111.7 ± 4.6 J/K/mol, the “molar heat capacity at constant volume” value (600.34 K, Fluid (supercritical or subcritical phases), Mass density=303.47 kg/m3, isochoric heat capacity) was 104.01 ± 4.3 J/K/mol and the “molar heat capacity at constant volume” value (600.34 K, Fluid (supercritical or subcritical phases), Mass density=305.44 kg/m3, isochoric heat capacity) was 105.13 ± 4.2 J/K/mol. The “molar heat capacity at constant volume” value (600.35 K, Fluid (supercritical or subcritical phases), Mass density=309.95 kg/m3, isochoric heat capacity) was 100.02 ± 4 J/K/mol, the “molar heat capacity at constant volume” value (600.42 K, Fluid (supercritical or subcritical phases), Mass density=303.47 kg/m3, isochoric heat capacity) was 98.88 ± 4.1 J/K/mol and the “molar heat capacity at constant volume” value (600.42 K, Fluid (supercritical or subcritical phases), Mass density=305.44 kg/m3, isochoric heat capacity) was 97.9 ± 4 J/K/mol.
